Laboratory results reported in the supplement of paper PMC13207355.

What was measured:
Conditions in all cases: exposure time: 72 h
E21 [1] = patient-derived glioblastoma stem cells of mesenchymal subtype; test: phenotypic distance (Euclidean, principal components) from DMSO controls (arbitrary units); higher = stronger morphological change
E31 [2] = patient-derived glioblastoma stem cells of proneural subtype; test: as above
FT3469 [3] = normal neural stem cell line; test: as above
E13 [4] = patient-derived glioblastoma stem cells of classical subtype; test: as above
E34 [5] = patient-derived glioblastoma stem cells of proneural subtype; test: as above
E57 [6] = patient-derived glioblastoma stem cells of mesenchymal subtype; test: as above
E28 [7] = patient-derived glioblastoma stem cells of classical subtype; test: as above
E21 [8] = test: surviving fraction (nuclei count normalised to DMSO); higher = more cells surviving (less toxic)
E31 [9] = test: as above
FT3469 [10] = test: as above
E13 [11] = test: as above
E34 [12] = test: as above
E57 [13] = test: as above
E28 [14] = test: as above
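Wherever phenotypic distance (Euclidean, principal components) from DMSO controls is given: cell Painting imaging in 384-well plates, CellProfiler features reduced to at least 20 principal components, Euclidean distance versus same-plate DMSO vehicle wells (0.1% v/v), median over six images per well.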
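Wherever surviving fraction (nuclei count normalised to DMSO) is given: nuclei counted by high-content imaging of Hoechst-stained cells in laminin-coated 384-well plates, relative to 0.1% DMSO vehicle wells, with staurosporine as cell-death control.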

COc1cc2c(cc1O)CC[C@@H]1[C@@H]2CC[C@]2(C)[C@@H](O)CC[C@@H]12 [2-methoxyestradiol]
Conditions	phenotypic distance	surviving fraction
E13 [4], 4.1 nM	0.645	–
E13 [4], 12.3 nM	0.821	–
E13 [4], 37 nM	1.01	–
E13 [4], 111.1 nM	1.47	–
E13 [4], 333.3 nM	0.958	–
E13 [4], 1000 nM	1.4	–
E13 [4], 3000 nM	5.03	–
E13 [11], 4.1 nM	–	0.992
E13 [11], 12.3 nM	–	0.961
E13 [11], 37 nM	–	0.838
E13 [11], 111.1 nM	–	1.04
E13 [11], 333.3 nM	–	0.816
E13 [11], 1000 nM	–	0.777
E13 [11], 3000 nM	–	0.174
E21 [1], 4.1 nM	1	–
E21 [1], 12.3 nM	1.01	–
E21 [1], 37 nM	0.858	–
E21 [1], 111.1 nM	1.42	–
E21 [1], 333.3 nM	1.01	–
E21 [1], 1000 nM	1.82	–
E21 [1], 3000 nM	6.05	–
E21 [8], 4.1 nM	–	0.888
E21 [8], 12.3 nM	–	0.932
E21 [8], 37 nM	–	0.919
E21 [8], 111.1 nM	–	0.885
E21 [8], 333.3 nM	–	0.928
E21 [8], 1000 nM	–	0.803
E21 [8], 3000 nM	–	0.257
E28 [7], 4.1 nM	0.862	–
E28 [7], 12.3 nM	1.15	–
E28 [7], 37 nM	0.941	–
E28 [7], 111.1 nM	1.27	–
E28 [7], 333.3 nM	0.698	–
E28 [7], 1000 nM	1.54	–
E28 [7], 3000 nM	3.97	–
E28 [14], 4.1 nM	–	1.14
E28 [14], 12.3 nM	–	0.843
E28 [14], 37 nM	–	0.86
E28 [14], 111.1 nM	–	0.687
E28 [14], 333.3 nM	–	0.862
E28 [14], 1000 nM	–	0.768
E28 [14], 3000 nM	–	0.41
E31 [2], 4.1 nM	0.701	–
E31 [2], 12.3 nM	0.672	–
E31 [2], 37 nM	0.712	–
E31 [2], 111.1 nM	0.758	–
E31 [2], 333.3 nM	0.88	–
E31 [2], 1000 nM	1.61	–
E31 [2], 3000 nM	5.31	–
E31 [9], 4.1 nM	–	1.08
E31 [9], 12.3 nM	–	0.913
E31 [9], 37 nM	–	0.985
E31 [9], 111.1 nM	–	0.862
E31 [9], 333.3 nM	–	0.731
E31 [9], 1000 nM	–	0.63
E31 [9], 3000 nM	–	0.194
E34 [5], 4.1 nM	0.764	–
E34 [5], 12.3 nM	2.41	–
E34 [5], 37 nM	0.956	–
E34 [5], 111.1 nM	0.641	–
E34 [5], 333.3 nM	0.508	–
E34 [5], 1000 nM	1.21	–
E34 [5], 3000 nM	4.96	–
E34 [12], 4.1 nM	–	0.925
E34 [12], 12.3 nM	–	0.876
E34 [12], 37 nM	–	1.11
E34 [12], 111.1 nM	–	1.07
E34 [12], 333.3 nM	–	1.02
E34 [12], 1000 nM	–	0.876
E34 [12], 3000 nM	–	0.388
E57 [6], 4.1 nM	0.835	–
E57 [6], 12.3 nM	1.06	–
E57 [6], 37 nM	0.97	–
E57 [6], 111.1 nM	0.943	–
E57 [6], 333.3 nM	0.975	–
E57 [6], 1000 nM	2.06	–
E57 [6], 3000 nM	7.41	–
E57 [13], 4.1 nM	–	1.04
E57 [13], 12.3 nM	–	1.02
E57 [13], 37 nM	–	1.09
E57 [13], 111.1 nM	–	1.06
E57 [13], 333.3 nM	–	1.03
E57 [13], 1000 nM	–	0.891
E57 [13], 3000 nM	–	0.19
FT3469 [3], 4.1 nM	1.02	–
FT3469 [3], 12.3 nM	0.62	–
FT3469 [3], 37 nM	0.868	–
FT3469 [3], 111.1 nM	0.854	–
FT3469 [3], 333.3 nM	0.793	–
FT3469 [3], 1000 nM	0.919	–
FT3469 [3], 3000 nM	3.47	–
FT3469 [10], 4.1 nM	–	0.794
FT3469 [10], 12.3 nM	–	0.981
FT3469 [10], 37 nM	–	1
FT3469 [10], 111.1 nM	–	0.858
FT3469 [10], 333.3 nM	–	0.846
FT3469 [10], 1000 nM	–	0.855
FT3469 [10], 3000 nM	–	0.527
